From patent publication US12697315B2, “Treatment for interstitial lung disease” (United Therapeutics Corporation, priority 2020, dated 2026)

Legend:
[1] = test system: patients with interstitial lung disease and pulmonary hypertension; test: Supplemental oxygen use, INCREASE; type: in vivo, human
[2] = test system: patients with interstitial lung disease and pulmonary hypertension; test: Adverse events and serious adverse events, INCREASE; settings: 16-week trial
Text: (§1) Safety assessments consisted of the development of AEs, vital signs, clinical laboratory parameters, ECG parameters, hospitalizations due to cardiopulmonary indications, exacerbations of underlying lung disease, and oxygenation.
(§2) Safety end points included adverse events, abnormal laboratory results, oxygenation as measured by pulse oximetry (Spo2) and supplemental oxygen requirement, changes in pulmonary function test results, hospitalization for a cardiopulmonary indication, and investigator-reported exacerbations of underlying lung disease, defined as acute, clinically significant respiratory deterioration characterized by evidence of new widespread alveolar abnormality.

[3] = test system: patients with interstitial lung disease and pulmonary hypertension; settings: human, in vivo, 16 weeks
Text: as §1, §2

[4] = test system: NT-proBNP; test: Plasma NT-proBNP level, INCREASE; type: in vivo, human; settings: for NT-proBNP treatment ratio (ratio of ratios between treatment groups): vs placebo, week 16
Experimental: We enrolled patients with interstitial lung disease and pulmonary hypertension (documented by right heart catheterization) in a multicenter, randomized, double-blind, placebo-controlled, 16-week trial. Patients were assigned in a 1:1 ratio to receive inhaled treprostinil, administered by means of an ultrasonic, pulsed-delivery nebulizer in up to 12 breaths (total, 72 μg) four times daily, or placebo. The primary efficacy end point was the difference between the two treatment groups in the change in peak 6-minute walk distance from baseline to week 16. Secondary end points included the change in N-terminal pro-B-type natriuretic peptide (NT-proBNP) level at week 16 and the time to clinical worsening.
The 6-minute walk test was performed and laboratory data were obtained at baseline and at weeks 4, 8, 12, and 16, or at the time of early discontinuation of treprostinil or placebo. Each 6-minute walk test was performed 10 to 60 minutes after the most recent dose of active drug or placebo, which is the time of peak plasma treprostinil exposure. A trough test was performed at week 15 at least 4 hours after the participant received a dose of treprostinil or placebo and at least 24 hours before the week 16 test. Pulse oximetry was performed immediately before, during, and after each 6-minute walk test. Measurement of N-terminal pro-B-type natriuretic peptide (NT-proBNP) levels and pulmonary function tests were performed at baseline and at weeks 8 and 16 (or at early discontinuation) after the patients recovered from the 6-minute walk test. The St. George's Respiratory Questionnaire (SGRQ), a quality-of-life measure, was completed at baseline and week 16 or at the time of early discontinuation.
The primary end point of the trial was the difference between the two groups in the change in peak 6-minute walk distance from baseline to week 16. Secondary efficacy end points were analyzed in the following hierarchical testing order: the change in NT-proBNP level from baseline to week 16, the time to clinical worsening, the change in 6-minute walk distance at peak plasma treprostinil level at week 12, and the change in 6-minute walk distance at trough treprostinil level at week 15. The time to clinical worsening was evaluated from the time of randomization until the patient's withdrawal from the trial and was defined as the time until the occurrence of any one of the following events: hospitalization for a cardiopulmonary indication, a decrease in 6-minute walk distance greater than 15% from baseline that was directly related to the disease under study at two consecutive visits and at least 24 hours apart, death from any cause, or lung transplantation.

With CCCCC[C@H](O)CC[C@@H]1[C@H]2Cc3cccc(OCC(=O)O)c3C[C@H]2C[C@H]1O [Inhaled treprostinil, treprostinil] the “Supplemental oxygen use During Walk (L/min), Change from Baseline, Median” value ([1]; Baseline During Walk) was 0.0 L/min, the “Supplemental oxygen use During Walk (L/min), Value, Median” value ([1]; Baseline During Walk) was 4.0 L/min and the “Supplemental oxygen use During Walk (L/min), Change from Baseline, Mean (SD)” value ([1]; Baseline During Walk, n 129) was 0.1 (0.8) L/min. The “Supplemental oxygen use During Walk (L/min), Value, Mean (SD)” value ([1]; Baseline During Walk, n 129) was 4.9 (4.0) L/min, the “Supplemental oxygen use Pre-walk (L/min), Change from Baseline, Median” value ([1]; Week 16) was 0.0 L/min and the “Supplemental oxygen use Pre-walk (L/min), Value, Median” value ([1]; Week 16) was 3.0 L/min. The “Supplemental oxygen use Pre-walk (L/min), Change from Baseline, Mean (SD)” value ([1]; Week 16, n 131) was 0.4 (1.4) L/min, the “Supplemental oxygen use Pre-walk (L/min), Value, Mean (SD)” value ([1]; Week 16, n 131) was 3.0 (2.5) L/min and the “treatment-related changes in supplemental oxygen use” value ([1]; over the trial period) was “no significant treatment-related changes”. The “patients with serious adverse events” value [2] was “patients (23.3%)”, the “Adverse event: Cough” value ([2]; N = 163) was 71 (43.6) no. of patients (%) and the “Adverse event: Diarrhea” value ([2]; N = 163) was 22 (13.5) no. of patients (%). The “Adverse event: Dizziness” value ([2]; N = 163) was 30 (18.4) no. of patients (%), the “Adverse event: Dyspnea” value ([2]; N = 163) was 41 (25.2) no. of patients (%) and the “Adverse event: Fatigue” value ([2]; N = 163) was 23 (14.1) no. of patients (%). The “Adverse event: Headache” value ([2]; N = 163) was 45 (27.6) no. of patients (%), the “Adverse event: NT-proBNP increased” value ([2]; N = 163) was 9 (5.5) no. of patients (%) and the “Adverse event: Nausea” value ([2]; N = 163) was 25 (15.3) no. of patients (%). For the same compound, the “Adverse event: Oropharyngeal pain” value ([2]; N = 163) was 18 (11.0) no. of patients (%), the “Adverse event: Throat irritation” value ([2]; N = 163) was 20 (12.3) no. of patients (%) and the “Any Serious Event, number of patients” value ([2]; N = 163) was 38 patients. The “Patients with ≥1 adverse event” value ([2]; N = 163) was 152 (93.3) no. (%), the “Patients with ≥1 serious adverse event” value ([2]; N = 163) was 38 (23.3) no. (%) and the “Serious adverse event: Abdominal pain” value ([2]; N = 163) was 0 n. For the same compound, the “Serious adverse event: Acute kidney injury” value ([2]; N = 163) was 0 n, the “Serious adverse event: Acute myocardial infarction” value ([2]; N = 163) was 1 n and the “Serious adverse event: Acute respiratory failure” value ([2]; N = 163) was 4 n. The “Serious adverse event: Acute right ventricular failure” value ([2]; N = 163) was 1 n, the “Serious adverse event: Arrhythmia” value ([2]; N = 163) was 1 n and the “Serious adverse event: Aspiration” value ([2]; N = 163) was 0 n. For the same compound, the “Serious adverse event: Atrial fibrillation” value ([2]; N = 163) was 0 n, the “Serious adverse event: B-cell lymphoma” value ([2]; N = 163) was 1 n and the “Serious adverse event: Bradycardia” value ([2]; N = 163) was 0 n. The “Serious adverse event: Bronchitis” value ([2]; N = 163) was 2 n, the “Serious adverse event: Bronchopulmonary aspergillosis” value ([2]; N = 163) was 1 n and the “Serious adverse event: Cardiac arrest” value ([2]; N = 163) was 1 n. For the same compound, the “Serious adverse event: Cardiac failure” value ([2]; N = 163) was 0 n, the “Serious adverse event: Cardiac failure acute” value ([2]; N = 163) was 0 n and the “Serious adverse event: Cardiac failure congestive” value ([2]; N = 163) was 1 n. The “Serious adverse event: Cardiogenic shock” value ([2]; N = 163) was 0 n, the “Serious adverse event: Cardiopulmonary failure” value ([2]; N = 163) was 1 n and the “Serious adverse event: Cellulitis” value ([2]; N = 163) was 1 n. The “Serious adverse event: Cerebral haemorrhage” value ([2]; N = 163) was 1 n, the “Serious adverse event: Chest pain” value ([2]; N = 163) was 1 n and the “Serious adverse event: Chronic obstructive pulmonary disease” value ([2]; N = 163) was 2 n. The “Serious adverse event: Chronic respiratory failure” value ([2]; N = 163) was 2 n, the “Serious adverse event: Chronic right ventricular failure” value ([2]; N = 163) was 0 n and the “Serious adverse event: Coagulopathy” value ([2]; N = 163) was 0 n. The “Serious adverse event: Combined pulmonary fibrosis and emphysema” value ([2]; N = 163) was 1 n, the “Serious adverse event: Cor pulmonale” value ([2]; N = 163) was 1 n and the “Serious adverse event: Cor pulmonale acute” value ([2]; N = 163) was 0 n. For the same compound, the “Serious adverse event: Coronary artery disease” value ([2]; N = 163) was 0 n, the “Serious adverse event: Death with unknown cause” value ([2]; N = 163) was 3 n and the “Serious adverse event: Disease progression” value ([2]; N = 163) was 0 n. For the same compound, the “Serious adverse event: Dyspnoea” value ([2]; N = 163) was 3 n, the “Serious adverse event: Epistaxis” value ([2]; N = 163) was 0 n and the “Serious adverse event: Fluid overload” value ([2]; N = 163) was 0 n. The “Serious adverse event: Haematochezia” value ([2]; N = 163) was 0 n, the “Serious adverse event: Haemoptysis” value ([2]; N = 163) was 1 n and the “Serious adverse event: Hyperglycaemia” value ([2]; N = 163) was 1 n. For the same compound, the “Serious adverse event: Hypertension” value ([2]; N = 163) was 0 n, the “Serious adverse event: Hypervolaemia” value ([2]; N = 163) was 1 n and the “Serious adverse event: Hypoxia” value ([2]; N = 163) was 1 n. The “Serious adverse event: Idiopathic pulmonary fibrosis” value ([2]; N = 163) was 1 n, the “Serious adverse event: Influenza” value ([2]; N = 163) was 1 n and the “Serious adverse event: Interstitial lung disease” value ([2]; N = 163) was 3 n. For the same compound, the “Serious adverse event: Left ventricular failure” value ([2]; N = 163) was 1 n, the “Serious adverse event: Lumbar vertebral fracture” value ([2]; N = 163) was 0 n and the “Serious adverse event: Metabolic encephalopathy” value ([2]; N = 163) was 0 n. The “Serious adverse event: Pain” value ([2]; N = 163) was 0 n, the “Serious adverse event: Pain in extremity” value ([2]; N = 163) was 1 n and the “Serious adverse event: Pneumonia” value ([2]; N = 163) was 1 n. For the same compound, the “Serious adverse event: Pneumonia influenzal” value ([2]; N = 163) was 0 n, the “Serious adverse event: Pneumothorax” value ([2]; N = 163) was 1 n and the “Serious adverse event: Post procedural infection” value ([2]; N = 163) was 0 n. The “Serious adverse event: Presyncope” value ([2]; N = 163) was 0 n, the “Serious adverse event: Pulmonary congestion” value ([2]; N = 163) was 0 n and the “Serious adverse event: Pulmonary hypertension” value ([2]; N = 163) was 1 n. The “Serious adverse event: Pulmonary oedema” value ([2]; N = 163) was 1 n, the “Serious adverse event: Respiratory distress” value ([2]; N = 163) was 0 n and the “Serious adverse event: Respiratory failure” value ([2]; N = 163) was 2 n. The “Serious adverse event: Right ventricular failure” value ([2]; N = 163) was 1 n, the “Serious adverse event: Scleroderma” value ([2]; N = 163) was 0 n and the “Serious adverse event: Sepsis” value ([2]; N = 163) was 0 n. The “Serious adverse event: Syncope” value ([2]; N = 163) was 1 n, the “Serious adverse event: Tachycardia” value ([2]; N = 163) was 1 n and the “Serious adverse event: Transplant dysfunction” value ([2]; N = 163) was 0 n. The “Serious adverse event: Upper respiratory tract infection” value ([2]; N = 163) was 2 n, the “Serious adverse event: Urosepsis” value ([2]; N = 163) was 0 n and the “Total no. of adverse events” value ([2]; N = 163) was 890. For the same compound, the “Total no. of adverse events leading to withdrawal of treprostinil or placebo” value ([2]; N = 163) was 47, the “Total no. of serious adverse events” value ([2]; N = 163) was 53 and the “patients with serious adverse events” value ([2]; listed as inhaled treprostinil) was 23.3%. The “Serious adverse event: Rhinovirus infection” value [3] was 1 n, the “Change in plasma concentration of NT-proBNP from baseline to wk 16, Mean (±SD) change” value ([4]; 156 patients) was -396.35 ± 1904.90 pg/mL and the “Change in plasma concentration of NT-proBNP from baseline to wk 16, Median” value ([4]; 156 patients) was -22.65 pg/mL. For the same compound, the “reduction in NT-proBNP compared to placebo” value ([4]; Week 16) was 42%, the “reduction in NT-proBNP levels from baseline” value ([4]; Week 16) was 15% and the “NT-proBNP treatment ratio (ratio of ratios between treatment groups)” value ([4]; listed as Inhaled Treprostinil) was “±0.58 ± 0.06”. For the same compound, the “NT-proBNP treatment ratio (ratio of ratios between treatment groups)” value ([4]; listed as inhaled treprostinil) was 0.58 and the “NT-proBNP, Ratio to baseline” value ([4]; wk 16, LS mean of log-transformed data ± SE) was 0.85 ± 0.06.
